From ChEMBL document CHEMBL5143657, “Discovery, Topo I inhibitory activity and mechanism evaluation of two novel cytisine-type alkaloid dimers from the seeds of Sophora alopecuroides L” (Bioorg Med Chem, 2022)
The source made the active and inactive calls. No cut-off for these calls is given here.

Legend:
[1] = target: T1, DNA topoisomerase 1 (Homo sapiens) (UniProt P11387); experiment: Poison activity at topoisomerase 1 (unknown origin) assessed as stabilization of enzyme-DNA cleavage complex by measuring increase in nicked DNA formation at 1 mM using pBR322 DNA as substrate after 30 mins by agarose gel electrophoresis
T1 sequence (whole entry): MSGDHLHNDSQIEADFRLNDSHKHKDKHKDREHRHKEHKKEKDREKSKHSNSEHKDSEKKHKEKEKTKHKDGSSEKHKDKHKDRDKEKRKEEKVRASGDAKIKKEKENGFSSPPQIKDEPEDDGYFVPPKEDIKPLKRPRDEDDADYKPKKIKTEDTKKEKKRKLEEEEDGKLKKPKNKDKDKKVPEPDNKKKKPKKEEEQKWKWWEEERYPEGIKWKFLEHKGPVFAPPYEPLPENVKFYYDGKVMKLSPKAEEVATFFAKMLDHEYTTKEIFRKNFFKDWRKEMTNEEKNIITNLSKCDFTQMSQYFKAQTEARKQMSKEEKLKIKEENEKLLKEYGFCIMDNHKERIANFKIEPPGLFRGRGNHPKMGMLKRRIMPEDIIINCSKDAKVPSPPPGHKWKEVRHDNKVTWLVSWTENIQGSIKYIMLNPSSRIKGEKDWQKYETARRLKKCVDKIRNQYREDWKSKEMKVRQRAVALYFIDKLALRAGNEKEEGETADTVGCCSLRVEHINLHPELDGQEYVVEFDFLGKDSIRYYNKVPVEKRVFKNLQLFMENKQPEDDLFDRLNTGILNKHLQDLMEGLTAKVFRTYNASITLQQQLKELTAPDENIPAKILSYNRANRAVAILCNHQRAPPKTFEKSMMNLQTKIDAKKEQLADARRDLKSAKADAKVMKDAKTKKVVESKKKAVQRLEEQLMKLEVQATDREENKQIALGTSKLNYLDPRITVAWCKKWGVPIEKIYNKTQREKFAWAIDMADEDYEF

[2] = target: T1, DNA topoisomerase 1 (Homo sapiens); experiment: Inhibition of topoisomerase 1 (unknown origin) assessed as reduction in relaxation of supercoiled DNA at 1 mM using pBR322 plasmid DNA as substrate measured after 30 mins by gel electrophoresis relative to control
[3] = target: T1, DNA topoisomerase 1 (Homo sapiens); experiment: Inhibition of topoisomerase 1 (unknown origin) assessed as DNA intercalation at 1 mM using pBR322 DNA as substrate measured after 30 mins by gel electrophoresis relative to control

Compound	Activity [1]	inhibition [2]	inhibition [3]
O=C1CCC[C@H]2[C@@H]3CCCN[C@H]3[C@H](CCCN3C[C@H]4C[C@H](C3)c3cccc(=O)n3C4)CN12	Active	82.3%	–
O=C1CCC[C@H]2[C@H]3CCCN[C@@H]3[C@@H](CCCN3C[C@H]4C[C@H](C3)c3cccc(=O)n3C4)CN12	Active	58.6%	–
CC[n+]1c(-c2ccccc2)c2cc(N)ccc2c2ccc(N)cc21	–	–	Active
